The source of these data is patent US11351184B2, “Preparation of Pulsatilla saponin B4 for injection” (priority 2017, dated 2022).

The subject of data set [1] is Cisplatin-induced Acute Kidney Injury In Mice. The data set can be described thus: Effect of B4 by different administration routes on cisplatin-induced acute kidney injury in mice. The class given is in vivo, ICR mouse. The conditions noted are these: for BUN / Crea / TP / Urine protein: 4 days; for Reduction of effective dose to reverse cisplatin-induced renal injury, injection compared with oral administration: iv 5 mg/kg versus gavage 100 mg/kg. The procedure:
Pulsatilla saponin B4 was orally and intravenously administrated in parallel, the effect of Pulsatilla saponin B4 in different administration routes on acute nephritis in cisplatin (CDDP)-stimulated mouse serum was investigated.
The drugs were all prepared into a solution with a specified concentration under “Test Method” with double distilled water and administered in the prescribed manner.
2.2 Modeling method: models were made at a dose of […] of cisplatin, the mice in normal group were injected with physiological saline intraperitoneally and the mice in other groups were injected with cisplatin intraperitoneally.
2.3 Grouping and administration: Animals were randomly divided into seven groups, 10-12 animals in each group:
(3) Dexamethasone positive group (0.5 mg/kg·body weight), dexamethasone solution was administered by gavage at a dose of 20 ml/kg·body weight;
(4) B4 high-dose group administered intravenously (5 mg/kg·body weight), B4 solution was injected into the tail vein at a dose of 5 ml/kg·body weight;
(5) B4 low-dose group administered intravenously (2.5 mg/kg·body weight), B4 solution was injected into the tail vein at a dose of 5 ml/kg·body weight;
(6) B4 high-dose group administered by gavage (100 mg/kg·body weight), B4 solution was given by gavage at a dose of 20 ml/kg·body weight;
(7) B4 low-dose group administered by gavage (50 mg/kg·body weight), B4 solution was given by gavage at a dose of 20 m/kg·body weight;
Drugs were administered continuously for 4 days from the day of modeling.
Urine was collected 0.5 hours after the last administration and urine protein was measured; blood was collected from the eyeball 1 hour after the administration, and the whole blood of the mice was placed at room temperature for 2 hours, centrifuged at 3500 rpm/min for 15 minutes, 200 μl supernatant was measured by an automatic biochemical analyzer to determine the total protein (TP), urea nitrogen (BUN) and creatinine (Cre).

Data set [2] is described as follows: Water solubility of Pulsatilla saponin B4. The class given is physicochemical.
Data set [3] in a line: Compatibility test of raw materials and excipients (high temperature and illumination). Type of data set: physicochemical. The method, then: The content of Pulsatilla saponin B4 in the following experimental examples and examples is determined according to the following method:
Chromatographic column: C18, 250 mm×4.6 mm, 5 μm
Mobile phase: acetonitrile-water (26:74) (volume ratio)
An appropriate amount of Pulsatilla saponin B4 control sample was taken, weighed precisely, placed into a 10 ml volumetric flask, added with methanol to dissolve and dilute to the mark, the solution was shaken well and filtered to obtain a solution with 1 mg Pulsatilla saponin B4 control sample/1 ml solution.
About 25 mg of test sample was taken, weighed precisely, placed into a 25 ml volumetric flask, added with the mobile phase to dissolve and dilute to the mark, the solution was shaken well and filtered through a 0.22 μm microporous membrane, the filtrate was taken to obtain the test sample.
10 μl of the test solution was taken and injected into a liquid chromatograph, the chromatogram was recorded. The calculation formula was as follows: […]
Pulsatilla saponin B4 raw material was mixed with various excipients (water for injection, physiological saline, mannitol, lactose, sucrose and glucose) in a ratio of 1:5 (mass), and then placed under the conditions of high temperature (60° C. and 40° C.) and illumination (4500Lux±500), the samples were taken on day 0, 7 and 14 to investigate the purity of Pulsatilla saponin B4 and related substances.

Setting [4] is: dexamethasone 0.5 mg/kg by gavage, serum 1 h after last administration.
Setting [5] is: B4 iv (tail vein) 2.5 mg/kg, serum.
Where [6] appears, read: B4 po (gavage) 100 mg/kg, serum.
[7] abbreviates: day 0, raw material:excipient 1:5 (mass).
[8] abbreviates: day 7, illumination (4500Lux±500).
[9] abbreviates: day 14, illumination (4500Lux±500).

Regarding `C[C@@H]1C[C@H]2[C@@H]3CCC4=CC(=O)C=C[C@]4(C)[C@@]3(F)[C@@H](O)C[C@]2(C)[C@@]1(O)C(=O)CO` [Positive control, Dexamethasone, reference compound], the BUN in data set [1] (setting [4]) was 42.97 ± 27.45 mg/dL; in data set [1] (dexamethasone 0.5 mg/kg by gavage, serum 1 h after last administration, listed as positive control) it was “decreased significantly”. The compound also displayed a Crea in data set [1] (setting [4]) of 30.10 ± 3.93 µmol/L. This compound came in with a TP in data set [1] (setting [4]) of 52.90 ± 2.50 g/L. Besides, the Urine protein was 1.00 ± 0.27 mg/mL in data set [1] (dexamethasone 0.5 mg/kg by gavage, urine 0.5 h after last administration) and “decreased significantly” in data set [1] (dexamethasone 0.5 mg/kg by gavage, urine 0.5 h after last administration, listed as positive control).

For the compound `C=C(C)C1CC[C@]2(C(=O)O[C@@H]3O[C@H](CO[C@@H]4O[C@H](CO)[C@@H](O[C@@H]5O[C@@H](C)[C@H](O)[C@@H](O)[C@H]5O)[C@H](O)[C@H]4O)[C@@H](O)[C@H](O)[C@H]3O)CC[C@]3(C)[C@H](CC[C@@H]4[C@@]5(C)CC[C@H](OC6OC[C@H](O)[C@H](O)[C@H]6O[C@]6(O)O[C@@H](C)[C@H](O)[C@@H](O)[C@H]6O)[C@@](C)(CO)[C@@H]5CC[C@]43C)[C@@H]12` (stereo partly drawn) [Prescription B4, Pulsatilla saponin B4], the water solubility result in data set [2] is “good water solubility”. In data set [1] (setting [5]), this compound returned a BUN of 69.26 ± 45.76 mg/dL, a Crea of 29.27 ± 5.66 µmol/L and a TP of 47.58 ± 2.50 g/L. Besides, the Urine protein in data set [1] (B4 iv (tail vein) 2.5 mg/kg, urine) is 1.35 ± 0.39 mg/mL. The compound further returned a TP in data set [1] (B4 iv (tail vein) 5 mg/kg, serum) of 46.58 ± 2.25 g/L. Besides, in data set [1] (B4 po (gavage) 50 mg/kg, serum), the BUN came to 50.1 ± 5.38 mg/dL, the Crea was 30.28 ± 4.77 µmol/L and the TP was determined as 47.69 ± 3.17 g/L. Further, the Urine protein in data set [1] (B4 po (gavage) 50 mg/kg, urine) was 1.37 ± 0.31 mg/mL. In data set [1] (setting [6]), the Crea worked out at 28.17 ± 3.01 µmol/L and the TP is reported as 48.15 ± 3.68 g/L. Moreover, the Urine protein in data set [1] (B4 po (gavage) 100 mg/kg, urine) was 1.19 ± 0.25 mg/mL. Moreover, the “Reduction of effective dose to reverse cisplatin-induced renal injury, injection compared with oral administration” value in data set [1] is “at least 20 times”. The “Reduction of effective dose to reverse cisplatin-induced renal injury, injection compared with oral administration” value in data set [1] (listed as Pulsatilla saponin B4) stood at 20 times. Moreover, in data set [3] (setting [7]), the “Purity (%)” value was found to be 99.10%, the “Related substances (%) Max single impurity” value is on record as 0.40% and the “Related substances (%) Total impurities” value was determined as 0.65%. Also, in data set [3] (day 7, 40° C.), the “Content (%) 40° C.” value was 98.96%, the “Related substances (%) 40° C. Max single impurity” value is recorded as 0.40% and the “Related substances (%) 40° C. Total impurities” value is 0.64%. In data set [3] (day 7, 60° C.), the “Content (%) 60° C.” value worked out at 98.93%, the “Related substances (%) 60° C. Max single impurity” value is given as 0.41% and the “Related substances (%) 60° C. Total impurities” value is 0.66%. Also, in data set [3] (setting [8]), the “Content (%) illumination” value was found to be 98.97%, the “Related substances (%) illumination Max single impurity” value was 0.40% and the “Related substances (%) illumination Total impurities” value turned out to be 0.64%. Further, in data set [3] (day 14, 40° C.), the “Content (%) 40° C.” value is listed as 98.86%, the “Related substances (%) 40° C. Max single impurity” value amounted to 0.41% and the “Related substances (%) 40° C. Total impurities” value worked out at 0.63%. Further, in data set [3] (day 14, 60° C.), the “Content (%) 60° C.” value was 98.89%, the “Related substances (%) 60° C. Max single impurity” value is reported as 0.41% and the “Related substances (%) 60° C. Total impurities” value was 0.64%. In data set [3] (setting [9]), the “Content (%) illumination” value is 98.95%, the “Related substances (%) illumination Max single impurity” value turned out to be 0.42% and the “Related substances (%) illumination Total impurities” value is reported as 0.64%.
